Assay results: PubChem BioAssay AID248 (DTP/NCI, 2004)
“And” between values parts separate entries of the source, which are not always exact repeats. Equal entries are not always repeated. Toxic doses and inconclusive results are not listed.

System: L1210 leukemia ip in BDF1 mice, survival T/C
Test: NCI In Vivo Anticancer Drug Screen. Data for tumor model L1210 Leukemia (intraperitoneal) in B6D2F1 (BDF1) mice
Details: endpoint: mean survival time, higher = longer survival
Outline: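 Mice bearing the transplanted tumor received compound or vehicle. Survival of the treated group was divided by that of the vehicle-treated control group to give the ratio.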

[1] = dose: 100.0 mg/kg/injection, schedule: Q04DX003 (ip), vehicle: saline
[2] = dose: 200.0 mg/kg/injection, schedule: Q04DX003 (ip), vehicle: saline
[3] = dose: 400.0 mg/kg/injection, schedule: Q04DX003 (ip), vehicle: saline
[4] = dose: 25.0 mg/kg/injection, schedule: Q01DX009 (ip), vehicle: saline with Tween-80
[5] = dose: 50.0 mg/kg/injection, schedule: Q01DX009 (ip), vehicle: saline with Tween-80

`CCOC(=O)NC12c3ccccc3C(c3ccccc31)C(C(=O)O)C2C(=O)O` (centres undefined) was tested, and the T/C (dose: 100.0 mg/kg/injection, schedule: Q04DX003 (ip), vehicle: saline sonified) was 90 % of control, the T/C (dose: 200.0 mg/kg/injection, schedule: Q04DX003 (ip), vehicle: saline sonified) was 119 % of control and the T/C (dose: 400.0 mg/kg/injection, schedule: Q04DX003 (ip), vehicle: saline sonified) was 90 % of control.

In the case of `C[N+](C)(C)CCOS(=O)(=O)[O-]`, the T/C (dose: 50.0 mg/kg/injection, schedule: Q04DX003 (ip), vehicle: saline) was 99 % of control, the T/C [1] was 97 % of control and 103 % of control and the T/C [2] was 95 % of control and 105 % of control. The T/C [3] was 98 % of control.

`CCC[CH2][Sn]([CH2]CCC)([O]S(C)(=O)=O)[O]S(C)(=O)=O` was tested, and the T/C (dose: 1.56 mg/kg/injection, schedule: Q01DX009 (ip), vehicle: Klucel (hydroxypropylcellulose) (HPC)) was 105 % of control and the T/C (dose: 3.12 mg/kg/injection, schedule: Q01DX009 (ip), vehicle: Klucel (hydroxypropylcellulose) (HPC)) was 105 % of control.

For `CC(=O)NCCC(C)C`, the T/C [1] was 98 % of control, the T/C [2] was 98 % of control and the T/C [3] was 95 % of control.

`CN(C)C(C(N)=O)C(=O)c1ccccc1` (centres undefined) was tested, and the T/C (dose: 100.0 mg/kg/injection, schedule: Q01DX001 (ip), vehicle: saline) was 102 % of control, the T/C (dose: 200.0 mg/kg/injection, schedule: Q01DX001 (ip), vehicle: saline) was 104 % of control and the T/C (dose: 400.0 mg/kg/injection, schedule: Q01DX001 (ip), vehicle: saline) was 88 % of control.

`O=S1OCC2(CO1)COS(=O)OC2` (centres undefined) was tested, and the T/C (dose: 1.56 mg/kg/injection, schedule: Q01DX009 (ip), vehicle: saline) was 103 % of control, the T/C (dose: 1.56 mg/kg/injection, schedule: Q04DX003 (ip), vehicle: saline) was 95 % of control and the T/C (dose: 3.12 mg/kg/injection, schedule: Q01DX009 (ip), vehicle: saline) was 98 % of control. For the same compound, the T/C (dose: 3.12 mg/kg/injection, schedule: Q04DX003 (ip), vehicle: saline) was 101 % of control and the T/C (dose: 6.25 mg/kg/injection, schedule: Q04DX003 (ip), vehicle: saline) was 104 % of control.

With `COc1ccc(/C=N/NC(=O)CNC(=O)c2ccccc2)cc1` the T/C [4] was 93 % of control, the T/C [5] was 95 % of control and the T/C (dose: 100.0 mg/kg/injection, schedule: Q01DX009 (ip), vehicle: saline with Tween-80) was 91 % of control.

With `Nc1cc(Cl)ccc1[N+](=O)[O-]` the T/C [1] was 103 % of control, the T/C [2] was 95 % of control and the T/C [3] was 96 % of control.

For `Nc1nc(N)c2nc(CSc3ccccc3)cnc2n1`, the T/C (dose: 20.0 mg/kg/injection, schedule: Q01DX009 (ip), vehicle: saline with Tween-80) was 97 % of control, the T/C (dose: 40.0 mg/kg/injection, schedule: Q01DX009 (ip), vehicle: saline with Tween-80) was 97 % of control and the T/C (dose: 80.0 mg/kg/injection, schedule: Q01DX009 (ip), vehicle: saline with Tween-80) was 94 % of control.

For `CCOC(=O)C(C(=O)Nc1ccccc1)=S(C)C`, the T/C (dose: 100.0 mg/kg/injection, schedule: Q04DX002 (ip), vehicle: Klucel (hydroxypropylcellulose) (HPC)) was 94 % of control, the T/C (dose: 200.0 mg/kg/injection, schedule: Q04DX002 (ip), vehicle: Klucel (hydroxypropylcellulose) (HPC)) was 106 % of control and the T/C (dose: 400.0 mg/kg/injection, schedule: Q04DX002 (ip), vehicle: Klucel (hydroxypropylcellulose) (HPC)) was 116 % of control.

`Cn1c(=O)c2c(nc(OCCC3CCCCC3)n2C)n(C)c1=O` was tested, and the T/C (dose: 50.0 mg/kg/injection, schedule: Q01DX001 (ip), vehicle: other) was 90 % of control, the T/C (dose: 100.0 mg/kg/injection, schedule: Q01DX001 (ip), vehicle: other) was 95 % of control and the T/C (dose: 200.0 mg/kg/injection, schedule: Q01DX001 (ip), vehicle: other) was 90 % of control. The T/C (dose: 400.0 mg/kg/injection, schedule: Q01DX001 (ip), vehicle: other) was 93 % of control.

In the case of `N#Cc1cnc(SCc2ccccc2)nc1N`, the T/C (dose: 100.0 mg/kg/injection, schedule: Q01DX001 (ip), vehicle: gum acacia) was 95 % of control, the T/C (dose: 100.0 mg/kg/injection, schedule: Q01DX009 (ip), vehicle: gum acacia) was 95 % of control and the T/C (dose: 200.0 mg/kg/injection, schedule: Q01DX001 (ip), vehicle: gum acacia) was 95 % of control. The T/C (dose: 200.0 mg/kg/injection, schedule: Q01DX009 (ip), vehicle: gum acacia) was 98 % of control, the T/C (dose: 400.0 mg/kg/injection, schedule: Q01DX001 (ip), vehicle: gum acacia) was 98 % of control and the T/C (dose: 400.0 mg/kg/injection, schedule: Q01DX009 (ip), vehicle: gum acacia) was 107 % of control.

For `CS(=O)(=O)Nc1ccc(Nc2c3ccccc3nc3ccccc23)cc1`, the T/C (dose: 10.0 mg/kg/injection, schedule: Q01DX009 (sc), vehicle: saline) was 108 % of control, the T/C (dose: 12.5 mg/kg/injection, schedule: Q01DX001 (ip), vehicle: saline) was 101 % of control and the T/C (dose: 20.0 mg/kg/injection, schedule: Q01DX009 (ip), vehicle: saline) was 161 % of control. The T/C (dose: 20.0 mg/kg/injection, schedule: Q01DX009 (sc), vehicle: saline) was 116 % of control, the T/C (dose: 25.0 mg/kg/injection, schedule: Q01DX001 (ip), vehicle: saline) was 119 % of control and the T/C (dose: 40.0 mg/kg/injection, schedule: Q01DX009 (ip), vehicle: saline) was 107 % of control. For the same compound, the T/C (dose: 50.0 mg/kg/injection, schedule: Q01DX001 (ip), vehicle: saline) was 104 % of control, the T/C (dose: 117.0 mg/kg/injection, schedule: Q01DX009 (ip), vehicle: carboxymethylcellulose (CMC)) was 97 % of control and the T/C (dose: 176.0 mg/kg/injection, schedule: Q01DX001 (ip), vehicle: carboxymethylcellulose (CMC)) was 151 % of control. For the same compound, the T/C (dose: 176.0 mg/kg/injection, schedule: Q01DX009 (ip), vehicle: carboxymethylcellulose (CMC)) was 100 % of control, the T/C (dose: 240.0 mg/kg/injection, schedule: Q04DX003 (ip), vehicle: Klucel (hydroxypropylcellulose) (HPC)) was 156 % of control and the T/C (dose: 264.0 mg/kg/injection, schedule: Q01DX001 (ip), vehicle: carboxymethylcellulose (CMC)) was 161 % of control. For the same compound, the T/C (dose: 266.0 mg/kg/injection, schedule: Q01DX001 (ip), vehicle: carboxymethylcellulose (CMC)) was 158 % of control, the T/C (dose: 400.0 mg/kg/injection, schedule: Q01DX001 (ip), vehicle: carboxymethylcellulose (CMC)) was 150 % of control and the T/C (dose: 600.0 mg/kg/injection, schedule: Q01DX001 (ip), vehicle: carboxymethylcellulose (CMC)) was 179 % of control and 253 % of control.

For `COc1ccc(C)cc1NC(=S)NC(=O)c1ccc(Cl)cc1Cl`, the T/C [4] was 93 % of control and 105 % of control, the T/C [5] was 93 % of control and 94 % of control and the T/C (dose: 100.0 mg/kg/injection, schedule: Q04DX002 (ip), vehicle: saline with Tween-80) was 96 % of control. The T/C (dose: 100.0 mg/kg/injection, schedule: Q04DX003 (ip), vehicle: saline with Tween-80) was 98 % of control, the T/C (dose: 200.0 mg/kg/injection, schedule: Q04DX002 (ip), vehicle: saline with Tween-80) was 93 % of control and 107 % of control and the T/C (dose: 200.0 mg/kg/injection, schedule: Q04DX003 (ip), vehicle: saline with Tween-80) was 95 % of control. The T/C (dose: 400.0 mg/kg/injection, schedule: Q01DX009 (ip), vehicle: saline with Tween-80) was 96 % of control and the T/C (dose: 400.0 mg/kg/injection, schedule: Q04DX002 (ip), vehicle: saline with Tween-80) was 93 % of control and 98 % of control.

In the case of `O=[N+]([O-])c1ccc(F)c(CNc2ncnc3c2ncn3C2CCCCO2)c1` (centres undefined), the T/C (dose: 100.0 mg/kg/injection, schedule: Q01DX009 (ip), vehicle: Klucel (hydroxypropylcellulose) (HPC)) was 100 % of control, the T/C (dose: 200.0 mg/kg/injection, schedule: Q01DX009 (ip), vehicle: Klucel (hydroxypropylcellulose) (HPC)) was 106 % of control and the T/C (dose: 400.0 mg/kg/injection, schedule: Q01DX009 (ip), vehicle: Klucel (hydroxypropylcellulose) (HPC)) was 100 % of control.

`CNC(=S)N/N=C(/C)CCc1c(C)nn(C(=S)NC)c1C` was tested, and the T/C (dose: 5.0 mg/kg/injection, schedule: Q01DX001 (ip), vehicle: carboxymethylcellulose (CMC)) was 94 % of control, the T/C (dose: 10.0 mg/kg/injection, schedule: Q01DX001 (ip), vehicle: carboxymethylcellulose (CMC)) was 91 % of control and the T/C (dose: 12.5 mg/kg/injection, schedule: Q01DX009 (ip), vehicle: Klucel (hydroxypropylcellulose) (HPC)) was 103 % of control. For the same compound, the T/C (dose: 20.0 mg/kg/injection, schedule: Q01DX001 (ip), vehicle: carboxymethylcellulose (CMC)) was 89 % of control, the T/C (dose: 25.0 mg/kg/injection, schedule: Q01DX009 (ip), vehicle: Klucel (hydroxypropylcellulose) (HPC)) was 100 % of control and the T/C (dose: 25.0 mg/kg/injection, schedule: Q04DX003 (ip), vehicle: Klucel (hydroxypropylcellulose) (HPC)) was 106 % of control. For the same compound, the T/C (dose: 40.0 mg/kg/injection, schedule: Q01DX001 (ip), vehicle: carboxymethylcellulose (CMC)) was 89 % of control, the T/C (dose: 50.0 mg/kg/injection, schedule: Q01DX009 (ip), vehicle: Klucel (hydroxypropylcellulose) (HPC)) was 92 % of control and the T/C (dose: 50.0 mg/kg/injection, schedule: Q04DX003 (ip), vehicle: Klucel (hydroxypropylcellulose) (HPC)) was 100 % of control. The T/C (dose: 80.0 mg/kg/injection, schedule: Q01DX001 (ip), vehicle: carboxymethylcellulose (CMC)) was 96 % of control and the T/C (dose: 100.0 mg/kg/injection, schedule: Q04DX003 (ip), vehicle: Klucel (hydroxypropylcellulose) (HPC)) was 92 % of control.
